Target: T1, AlaRS E337K binding to Nrp1 (Homo sapiens, UniProt P49588, E337K)
T1 construct: expressed in transfected cells
T1 sequence (P49588 1-968 E337K): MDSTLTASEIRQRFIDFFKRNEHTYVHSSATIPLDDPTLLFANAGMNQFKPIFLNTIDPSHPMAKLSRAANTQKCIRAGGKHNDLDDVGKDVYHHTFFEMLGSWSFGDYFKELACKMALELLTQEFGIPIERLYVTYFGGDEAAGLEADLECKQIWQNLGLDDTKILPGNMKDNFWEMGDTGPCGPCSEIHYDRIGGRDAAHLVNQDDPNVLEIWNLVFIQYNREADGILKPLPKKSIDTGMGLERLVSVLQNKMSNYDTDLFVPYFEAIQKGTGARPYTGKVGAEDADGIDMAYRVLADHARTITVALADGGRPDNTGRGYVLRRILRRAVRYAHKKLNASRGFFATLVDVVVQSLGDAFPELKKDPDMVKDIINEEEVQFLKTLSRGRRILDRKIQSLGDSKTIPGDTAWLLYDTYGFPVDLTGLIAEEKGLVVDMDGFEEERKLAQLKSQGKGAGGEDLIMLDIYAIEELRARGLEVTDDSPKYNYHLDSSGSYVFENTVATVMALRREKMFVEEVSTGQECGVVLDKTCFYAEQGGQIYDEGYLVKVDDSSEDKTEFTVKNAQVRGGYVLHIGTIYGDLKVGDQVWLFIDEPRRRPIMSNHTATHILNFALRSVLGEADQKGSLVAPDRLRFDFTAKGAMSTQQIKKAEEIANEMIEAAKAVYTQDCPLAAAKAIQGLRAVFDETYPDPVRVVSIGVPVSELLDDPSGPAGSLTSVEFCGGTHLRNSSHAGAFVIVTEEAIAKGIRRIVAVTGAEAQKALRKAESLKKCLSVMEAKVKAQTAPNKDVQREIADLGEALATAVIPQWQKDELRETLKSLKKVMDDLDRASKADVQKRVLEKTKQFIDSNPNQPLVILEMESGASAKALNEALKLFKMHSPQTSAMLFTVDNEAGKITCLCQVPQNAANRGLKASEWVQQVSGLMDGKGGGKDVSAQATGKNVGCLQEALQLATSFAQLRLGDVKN
Experiment: Co-IP of HA-AlaRS mutant with Nrp1 in transfected cells
Format: cell-based
Conditions: 20 µM Tanshinone I for 24 h, ImageJ, average of three repeats
Description: To further investigate whether Tanshinone I-induced conformational changes in AlaRS CMT mutants affect their interaction with Nrp1, Co-IP experiments were performed in cells treated with Tanshinone I. By comparing Co-IP results obtained before and after treatment, we assessed the influence of the drug on the binding strength and mode between the AlaRS CMT mutants and Nrp1. […] To confirm the direct effect of Tanshinone I on the interaction between AlaRS CMT mutants and Nrp1, pull-down experiments were performed. […] Given that the interaction between AlaRS mutants and Nrp1 is associated with disease progression in CMT, the ability of Tanshinone I to disrupt this binding highlights its potential to intervene in the pathogenic mechanisms of these diseases.
Figure 7 The impact of Tanshinone I on the interaction between AlaRS mutants and Nrp1. (A) Co-IP assays were conducted to assess the binding between HA-AlaRS mutants and Nrp1, both with and without treatment with 20 µM Tanshinone I for 24 h. […] (C) Pull down assay was performed to detect the binding between AlaRS mutants and GST-Nrp1 b1 with or without 20 µM Tanshinone I. (D) Relative quantification statistics of the AlaRS mutants pulled down from the GST pull down experiments after Tanshinone I treatment were performed using ImageJ. (E) The cell viability of 293T and NSC34 cells treated with different concentrations of Tanshinone I was assessed using the CCK-8 assay over a 24 h period. TEXT PRINTED IN THE PICTURE: (B) Tanshinone I: Mean density band (N71Y): 0.60; Mean density band (G102R): 0.53; Mean density band (R326W): 0.50; Mean density band (R329H): 0.50; Mean density band (E337K): 0.62 | (D) Tanshinone I: Mean density band (N71Y): 0.82; Mean density band (G102R): 0.76; Mean density band (R326W): 0.84; Mean density band (R329H): 0.84; Mean density band (E337K): 0.90
Total protein was extracted from cells using RIPA buffer (50 mM Tris-HCl pH 7.4, 150 mM NaCl, 1% NP40, 1 mM EDTA) supplemented with a protease and phosphatase inhibitor cocktail (Roche, Basel, Switzerland). After SDS-PAGE, the protein on the gel was transferred to a PVDF membrane (Bio-Rad, Hercules, CA, USA) and then blocked with 5% non-fat dry milk in TBST for 1 h. Then, the membranes were incubated with the indicated primary antibodies and corresponding HRP-conjugated secondary antibodies. Signals were detected using the Bio-Rad ChemiDoc system (Bio-Rad, Shanghai, China). The following antibodies were used: Flag (Ray antibody biotech, Beijing, China, 1:3000), HA (Ray antibody biotech, Beijing, China, 1:3000), and GAPDH (Ray antibody biotech, Beijing, China, 1:5000).
To detect the binding of Nrp1 and AlaRS mutants in cells, whole-cell lysates (500 μg) were treated overnight with 2 μg of anti-Flag antibody in RIPA buffer. Next, Protein A/G agarose beads (#sc-2003, Santa Cruz Biotechnology, Santa Cruz, CA, USA) were applied to the lysates and the samples were further treated for 8–12 h with rotation. Samples were washed three times with RIPA buffer. Subsequently, the immunoprecipitations were resuspended into 2 × SDS-loading buffer. The samples were then boiled for 10 min and detected using Western blot. The experiment was repeated three times.

Cc1coc2c1C(=O)C(=O)c1c-2ccc2c(C)cccc12 [Tanshinone I]
Mean density band (E337K), relative quantification of AlaRS mutant immunoprecipitated: 0.62

Source: publication PMC11509018, “Evaluation of the Role of Tanshinone I in an In Vitro System of Charcot-Marie-Tooth Disease Type 2N” (International Journal of Molecular Sciences, 2024)
